In ChEMBL document CHEMBL4422649, “Soluble-type small-molecule CD4 mimics as HIV entry inhibitors” (Bioorg Med Chem Lett, 2019):
Converted amounts (≈) assume the structure as drawn.

Legend:
[1] = biological target: Envelope glycoprotein gp160 (Human immunodeficiency virus 1, UniProt Q6QLK5); assay: Binding affinity to HIV1 cYTA48P envelope glycoprotein gp120 infected in human TZM-b1 cells assessed as induction of conformational changes measured after 48 hrs; type: cell-based
[2] = Cytotoxicity against human TZM-b1 cells assessed as reduction in cell viability by CCK8 assay; type: cell-based
[3] = biological target: Envelope glycoprotein gp160 (Human immunodeficiency virus 1) (UniProt Q6QLK5); assay: Binding affinity to HIV1 cYTA48P envelope glycoprotein gp120 infected in human TZM-b1 cells assessed as induction of conformational changes by measuring combination index at 450:1 ratio of test compound to KD-247 measured after 48 hrs; type: cell-based
Envelope glycoprotein gp160 (Human immunodeficiency virus 1), sequence (Q6QLK5 1-814): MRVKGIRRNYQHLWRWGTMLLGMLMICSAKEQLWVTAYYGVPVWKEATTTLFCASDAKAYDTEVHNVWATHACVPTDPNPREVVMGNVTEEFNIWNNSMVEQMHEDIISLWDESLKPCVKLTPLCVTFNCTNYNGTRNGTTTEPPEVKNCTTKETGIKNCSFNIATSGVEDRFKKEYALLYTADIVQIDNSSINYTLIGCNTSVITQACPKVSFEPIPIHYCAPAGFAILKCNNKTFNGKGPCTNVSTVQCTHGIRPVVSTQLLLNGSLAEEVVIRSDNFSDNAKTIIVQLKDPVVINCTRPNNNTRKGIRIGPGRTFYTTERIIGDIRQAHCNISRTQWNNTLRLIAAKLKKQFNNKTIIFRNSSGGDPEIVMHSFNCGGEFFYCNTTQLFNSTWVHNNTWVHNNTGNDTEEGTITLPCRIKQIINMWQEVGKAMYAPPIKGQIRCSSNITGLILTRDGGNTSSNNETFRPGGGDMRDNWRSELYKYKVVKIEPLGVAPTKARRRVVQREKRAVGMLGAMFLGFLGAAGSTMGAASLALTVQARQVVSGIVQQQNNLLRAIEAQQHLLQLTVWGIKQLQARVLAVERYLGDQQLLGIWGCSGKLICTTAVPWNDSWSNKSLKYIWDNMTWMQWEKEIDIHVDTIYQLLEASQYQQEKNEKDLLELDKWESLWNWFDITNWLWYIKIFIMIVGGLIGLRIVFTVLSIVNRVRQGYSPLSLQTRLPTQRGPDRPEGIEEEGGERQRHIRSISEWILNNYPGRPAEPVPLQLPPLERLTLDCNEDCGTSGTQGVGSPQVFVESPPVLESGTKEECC

[4] = Aqueous solubility of the compound in phosphate buffered saline; type: physicochemical
[5] = biological target: Envelope glycoprotein gp160 (Human immunodeficiency virus 1) (UniProt Q6QLK5); assay: Binding affinity to HIV1 cYTA48P envelope glycoprotein gp120 infected in human TZM-b1 cells assessed as induction of conformational changes by measuring combination index at 15:1 ratio of test compound to KD-247 measured after 48 hrs; type: cell-based

Envelope glycoprotein gp160, sequence (Q6QLK5 whole entry): as the sequence (Q6QLK5 1-814) above

## CC1(C)CC(NC(=O)C(=O)Nc2cccnc2)CC(C)(C)N1
[1]
  IC50: > 100 µM
[2]
  CC50: > 300 µM

## O=C(Nc1ccc(Br)nc1)C(=O)NC1CCNC2(CCCCC2)C1 (centres undefined)
[1]
  IC50: 1.2 µM
[2]
  CC50: 180 µM

## CC1(C)CC(NC(=O)C(=O)Nc2cccnc2Cl)CC(C)(C)N1
[1]
  IC50: > 100 µM
[2]
  CC50: > 300 µM

## CC1(C)CC(NC(=O)C(=O)Nc2cnc(F)c(F)c2)CC(C)(C)N1
[1]
  IC50: 7.6 µM
[2]
  CC50: > 300 µM

## CC1(C)CC(NC(=O)C(=O)Nc2ccc(C(F)(F)F)cn2)CC(C)(C)N1
[1]
  IC50: 46 µM
[2]
  CC50: > 300 µM

## CC1(C)CC(NC(=O)C(=O)Nc2ccncc2)CC(C)(C)N1
[1]
  IC50: > 100 µM
[2]
  CC50: > 300 µM

## CC1(C)CC(NC(=O)C(=O)Nc2ccnc(Br)c2)CC(C)(C)N1
[1]
  IC50: 3.6 µM
[3]
  CI: 0.16
[2]
  CC50: 295 µM

## CC1(C)CC(NC(=O)C(=O)Nc2ccc(Br)nc2)CC(C)(C)N1
[4]
  solubility: 3.62 mM (≈ 1390 µg/mL)
[1]
  IC50: 1.2 µM
[2]
  CC50: > 300 µM

## CC1(C)CC(NC(=O)C(=O)Nc2ccc(Br)cn2)CC(C)(C)N1
[1]
  IC50: 42 µM
[2]
  CC50: 71 µM

## CC1(C)CC(NC(=O)C(=O)Nc2ccc(Cl)cn2)CC(C)(C)N1
[1]
  IC50: 61 µM
[2]
  CC50: > 300 µM

## Cc1cccc(NC(=O)C(=O)NC2CC(C)(C)NC(C)(C)C2)n1
[1]
  IC50: > 100 µM
[2]
  CC50: 257 µM

## COc1ccc(NC(=O)C(=O)NC2CC(C)(C)NC(C)(C)C2)cn1
[1]
  IC50: 27 µM
[2]
  CC50: > 300 µM

## CC1(C)CC(NC(=O)C(=O)Nc2ccc(Cl)nc2)CC(C)(C)N1
[1]
  IC50: 4 µM
[2]
  CC50: > 300 µM

## O=C1Nc2ccc(Cl)cc2[C@@](C#CC2CC2)(C(F)(F)F)O1 [EFAVIRENZ]
[1]
  IC50: 0.0035 µM
[2]
  CC50: 20 µM

## CC1(C)CC(NC(=O)C(=O)Nc2ccc(Cl)cc2)CC(C)(C)N1
[4]
  solubility: 1.39 mM (≈ 470 µg/mL)
[1]
  IC50: 0.17 µM
[5]
  CI: 0.52
[2]
  CC50: 116 µM

## CC1(C)CC(NC(=O)C(=O)Nc2ccc(F)nc2)CC(C)(C)N1
[4]
  solubility: 6.67 mM (≈ 2150 µg/mL)
[1]
  IC50: 2.1 µM
[3]
  CI: 0.34
[2]
  CC50: > 300 µM

## CC1(C)CC(NC(=O)C(=O)Nc2ccnc(Cl)c2)CC(C)(C)N1
[1]
  IC50: 2.3 µM
[3]
  CI: 0.2
[2]
  CC50: > 300 µM

## CC1(C)CC(NC(=O)C(=O)Nc2ccc(F)cn2)CC(C)(C)N1
[1]
  IC50: 59 µM
[2]
  CC50: > 300 µM

## CC1(C)CC(NC(=O)C(=O)Nc2ccnc(F)c2)CC(C)(C)N1
[1]
  IC50: 63 µM
[2]
  CC50: > 300 µM

## CC1(C)CC(NC(=O)C(=O)Nc2ccc(I)cn2)CC(C)(C)N1
[1]
  IC50: 68 µM
[2]
  CC50: 205 µM

## O=C(Nc1ccc(F)nc1)C(=O)NC1CCNC2(CCCCC2)C1 (centres undefined)
[1]
  IC50: 0.46 µM
[2]
  CC50: > 300 µM
